# Patent US20120045483A1, “Mannitol and/or Proline for Prevention and Treatment of Ageing Related Symptoms” (ERASMUS MC, priority 2006, published 2012)
# Where two headings read alike, the source gives them in different places.
# Assays:
# CSB mice [1] = assay: γ-irradiation induced photoreceptor loss in CSB mice, TUNEL staining of the retina; type: in vivo, mouse; details: osmotic pump, 8 week-old CSB mice, γ-irradiated
# Experimental: CSB mice have accelerated aging-related photoreceptor loss. […] The photoreceptor loss can also be induced in young adult CSB mice (8-10 weeks) with γ-irradiation (induces a.o. oxidative DNA damage). Since aging-related photoreceptor-loss is at least in part caused by unrepaired oxidative DNA damage, we are able to intervene with anti-oxidant or radical scavenger molecules, in particular with mannitol and/or proline. 21 CSB animals, age 6 months, received an osmotic pump, 7×30 mm (volume 200 μl), subcutaneously implanted under the skin on the back, for continuous release of Phosphate Buffered Saline (control), 0.3M D-Mannitol or 0.03M D-Mannitol dissolved in Phosphate Buffered Saline, 7 animals per compound. To determine the actual D-Mannitol concentration in the blood of these animals, blood samples were taken every 7 days after the implantation of the osmotic pump. After three weeks, eyes were isolated from these animals and TUNEL staining was performed to determine the effect of D-Mannitol on diminishing the age-related photoreceptor-loss in CSB animals, Blood and urine samples were taken for measurements of D-mannitol levels and for determination of biomarkers. […] For quantification, the number of TUNEL-positive cells in the inner nuclear layer (INL) and outer nuclear layer (ONL) were counted in 6 whole sections per mouse. […]
# CSB mice [2] = assay: Age-related photoreceptor loss in CSB mice, TUNEL staining of the retina, without radiation; type: in vivo, mouse; details: for Apoptotic index without radiation (number of TUNEL-positive cells): osmotic pump, 3 weeks, CSB mice age 6 months
# Experimental: CSB mice have accelerated aging-related photoreceptor loss. […] The photoreceptor loss can also be induced in young adult CSB mice (8-10 weeks) with γ-irradiation (induces a.o. oxidative DNA damage). Since aging-related photoreceptor-loss is at least in part caused by unrepaired oxidative DNA damage, we are able to intervene with anti-oxidant or radical scavenger molecules, in particular with mannitol and/or proline. 21 CSB animals, age 6 months, received an osmotic pump, 7×30 mm (volume 200 μl), subcutaneously implanted under the skin on the back, for continuous release of Phosphate Buffered Saline (control), 0.3M D-Mannitol or 0.03M D-Mannitol dissolved in Phosphate Buffered Saline, 7 animals per compound. To determine the actual D-Mannitol concentration in the blood of these animals, blood samples were taken every 7 days after the implantation of the osmotic pump. After three weeks, eyes were isolated from these animals and TUNEL staining was performed to determine the effect of D-Mannitol on diminishing the age-related photoreceptor-loss in CSB animals, Blood and urine samples were taken for measurements of D-mannitol levels and for determination of biomarkers. In a second experiment, the D-Mannitol treatment via osmotic pumps were repeated, but here on 8 week-old CSB mice were γ-irradiated, in order to see if D-mannitol can reduce the γ-induced photoreceptor-loss observed in CSB mice. For retinal evaluation by TUNEL staining, eyes were marked nasally with Alcian blue (5% Alcian blue in 96% ethanol), enucleated, fixed in 4% paraformaldehyde in 0.1M phosphate buffer, washed in PBS and embedded in paraffin. Horizontal sections (5 μm thick) of the retina were cut and sections in the middle of the retina were selected by Alcian blue marking and proximity of the optic nerve. […] For quantification, the number of TUNEL-positive cells in the inner nuclear layer (INL) and outer nuclear layer (ONL) were counted in 6 whole sections per mouse.
# [3] = system: Csb^G744ter/G744ter/Xpa^null/null double mutant mice; type: in vivo, mouse; details: for Clearance from the tissues and bloodstream of treated subjects: higher single dose administrations; for Effectiveness of higher single dose administrations: versus low constant source; for Positive results as with mannitol and/or proline: tested under similar conditions
# Excerpt: Additionally these animals have an enhanced photoreceptor cell loss. The accumulation of oxidative DNA damage before and immediately after birth presumably negatively influences transcription and causes the premature ageing phenotype.
# In order to investigate the effect of radical scavengers on the CSB/XPA double knockout mice, the effect of several compounds and compositions was monitored by the frequency of CSB/XPA DKO mice (closer to the expected mendelian frequency of 25%), an extended life-span (longer than the average three weeks for untreated DKO mice) and a delay or to some extent inhibit the premature ageing phenotype.
# To obtain CSB/XPA double mutant mice the following crossing were done:
# From these crossings CSB^−/−XPA^−/− mice were born with a frequency of 9%, whereas the expected Mendelian frequency is 25%.
# The offspring were genotyped following normal procedures (tail clipping and genomic DNA analysis by Southern blot analysis or PCR amplification) and monitored for life span.
# [4] = Serum mannitol concentration in CSB mice with osmotic pump; type: in vivo; details: mouse, sc, subcutaneous osmotic pump (200 μl), read-out: Serum [mannitol] after 3 weeks
# Experimental: The sample is further precipitated using acetonitrile and centrifuged. […] The organic layer is isolated and evaporated to dryness. The residue is dissolved in injection solvent and injected.
# 21 CSB animals, age 6 months, received an osmotic pump, 7×30 mm (volume 200 μl), subcutaneously implanted under the skin on the back, for continuous release of Phosphate Buffered Saline (control), 0.3M D-Mannitol or 0.03M D-Mannitol dissolved in Phosphate Buffered Saline, 7 animals per compound. To determine the actual D-Mannitol concentration in the blood of these animals, blood samples were taken every 7 days after the implantation of the osmotic pump. After three weeks, eyes were isolated from these animals and TUNEL staining was performed to determine the effect of D-Mannitol on diminishing the age-related photoreceptor-loss in CSB animals, Blood and urine samples were taken for measurements of D-mannitol levels and for determination of biomarkers. In a second experiment, the D-Mannitol treatment via osmotic pumps were repeated, but here on 8 week-old CSB mice were γ-irradiated, in order to see if D-mannitol can reduce the γ-induced photoreceptor-loss observed in CSB mice.
# [5] = In vitro AOC (anti-oxidant capacity); details: effective concentrations between 0.1 μg/ml and 10 μg/ml as measured in the serum
# Excerpt: The compositions of the invention may be of any type. […] Mannitol and proline in particular have well documented anti-oxidant properties.
# [6] = 0.2M L-Proline via drinking water, one week, wt animals
# Experimental: (§1) The LLOQ (Lowest Limit of Quantitation) for proline is typically 0.250 μg/ml. […] The sample is further precipitated using acetonitrile and centrifuged. An aliquot of the supernatant is evaporated to dryness under a steam of nitrogen at 60° C., Milli-Q water is added and the preparation is vortexed. Methanol is subsequently added to the preparation and vortexed. Usually Milli-Q water and methanol are added in a ratio of 1/5. The preparation is centrifuged for 2 minutes at a speed of 4000 g or more. The obtained preparation is injected. The apparatus used for LC-MS/MS is API4000 LC-MS/MS.
# L-Proline was also measured in the blood and urine of four wt animals that received 0.2M L-Proline via their drinking water. As a control, four wt animals received just drinking water. The duration of this treatment was one week, after which one blood sample and one urine sample was taken.
# [7] = Transmission of D-Mannitol and L-Proline from mother to pup, osmotic pump in pregnant wild type mice, LC-MS/MS levels; details: osmotic pump 200 μl, 0.3M alone or 0.2M each combined, 28 days, pregnant wild type mice (C57B1/6)
# Experimental: The sample is further precipitated using acetonitrile and centrifuged.
# as §1
# [8] = 5% D-mannitol in PBS, osmotic pump in pregnant females
compound,measurement,setting,value
"OC[C@@H](O)[C@@H](O)[C@H](O)[C@H](O)CO [Mannitol, hexane-1,2,3,4,5,6-hexyl]",Apoptotic index after radiation (number of TUNEL-positive cells),CSB mice [1]; 0.03M D-Mannitol,29.5 ± 6.0
same,Apoptotic index after radiation (number of TUNEL-positive cells),CSB mice [1]; 0.3M D-Mannitol,28.9 ± 11.3
same,Apoptotic index without radiation (number of TUNEL-positive cells),CSB mice [2]; 0.03M D-Mannitol,24.1 ± 6.8
same,Apoptotic index without radiation (number of TUNEL-positive cells),CSB mice [2]; 0.3M D-Mannitol,24.8 ± 6.0
same,Change of the apoptotic index (photoreceptor loss),"CSB mice [2]; endogenous or exogenous (radiation induced) oxidative stress, CSB mice",significant decrease
same,Frequency of birth and survival after birth of XPA/CSB double KO mice,[3]; 2% D-Mannitol administered to drinking water,Comparable results
same,Frequency of birth of XPA/CSB double KO mice,[3]; [8],increase in frequency of birth
same,Survival after birth (life span) of XPA/CSB double KO mice,[3]; [8],increase in survival after birth
same,Clearance from the tissues and bloodstream of treated subjects,[3],rapidly cleared
same,Effectiveness of higher single dose administrations,[3],less or even ineffective
same,concentration at 3 weeks,"[4]; 0.03 M (200 μl osmotic pump, continuous release), 0.03M D-Mannitol in PBS",100 ± 30 ng/mL
same,concentration at 3 weeks,"[4]; 0.3 M (200 μl osmotic pump, continuous release), 0.3M D-Mannitol in PBS",650 ± 180 ng/mL
same,AOC (anti-oxidant capacity) in vitro,[5],no or negligible
"O=C(O)[C@@H]1CCCN1 [proline, L-Proline]",L-Proline levels in the blood,[6],no elevated levels
same,L-Proline levels in the urine,[6],High levels
same,Clearance from the tissues and bloodstream of treated subjects,[3],rapidly cleared
same,Effectiveness of higher single dose administrations,[3],less or even ineffective
same,Frequency of survival of DKO pups after birth,[3]; proline treatment,equally effective in increasing the frequency of survival
same,"Elevated levels in blood of mothers and pups, in milk or in whole embryo's",[7],not detected
same,AOC (anti-oxidant capacity) in vitro,[5],no or negligible
O=C1O[C@H]([C@@H](O)CO)C(O)=C1O [vitamin C],Positive results as with mannitol and/or proline,[3],did not yield the positive results
vitamin E,Positive results as with mannitol and/or proline,[3],did not yield the positive results
